According to patent publication US5004833A, “KS-501 derivatives” (Kyowa Hakko Kogyo Co., Ltd., priority 1988, dated 1991):
In brackets after ≈: the same amount, converted by molar mass. Read-outs that look alike come from different tables or passages of the source.

Test system: washed platelet
Test: Effect on platelet aggregation (washed platelets stimulated with thrombin or platelet-activating factor, Born method)
Assay type: cell-based, white rabbit
Conditions: for IC50: Oryctolagus cuniculus, 0.05 h, 3 min incubation, 37° C.
Description: 8.5 vol of blood was collected from the carotid arteries of a white rabbit, and placed in a tube containing 1.5 vol of a citrate-dextrose solution (71 mM citric acid, 85 mM sodium citrate and 111 mM dextrose). The thus obtained blood was centrifuged at 200 xg for 15 minutes to obtain platelet-rich plasma (PRP). This PRP was centrifuged at 650×g for 10 minutes to obtain platelet precipitates. After washing with Ca^++ -free Tyrode's solution containing 2 mM ethylenebis(oxyethylenenitrilo)tetraacetic acid (hereinafter referred to as EGTA), the platelet precipitates were centrifuged again at 650×g for 10 minutes for washing. The resulting platelet precipitates were suspended in Ca^++ -free Tyrode's solution containing 0.25% bovine serum albumin to reach a density of 5×10^8 cells/ml. After allowing to stand for about 30 minutes, 1 mM CaCl2 or 1 mM EGTA was added to the suspension of the washed platelet. The mixture was allowed to stand for further 30 minutes, and then platelet aggregation was measured.
The platelet aggregation was measured with an aggregometer, ACGRETEC TE-500 (product of Erma Optical Co., Ltd.) to which the Born method was applied.
First, 10 μl portions of a test compound solution were added to 0.2 ml portions of the suspension of the washed platelet, while stirring at 1,000 rpm and at 37° C. After incubation at 37° C. for 3 minutes, 10 μl portions of a stimulating agent thrombin (final concentration : 0.05 U/ml) or platelet-activating factor (final concentration: 10^-10 M) were added thereto, respectively to initiate the reaction. The rate of platelet aggregation inhibition of the test compound were calculated from the maximum aggregation rate obtained by the use of the test compound and the maximum aggregation rate obtained by use of only the solvent used for dissolving the test compound, according to the following equation. The effect of the test compound was determined as the drug concentration which gave the inhibition rate of 50%. [formula] A: maximum aggregation rate in use of the solvent alone B: maximum aggregation rate in use of the test compound

IC50 (stimulating agent platelet-activating factor, final concentration 10^-10 M, read-out: IC50 (platelet aggregation inhibition, stimulating agent platelet-activating factor)): 45 µg/mL (≈ 102 µM) | IC50 (Platelet, stimulating agent thrombin, final concentration 0.05 U/ml, read-out: IC50 (platelet aggregation inhibition, stimulating agent thrombin)): 72 µg/mL (≈ 163 µM)
Compound: CCCCCCCc1cc(O)cc(OC(=O)c2c(O)cc(O)cc2CCCCCCC)c1 [Compound 4]
inhibition of platelet aggregation, in words (stimulated with thrombin and platelet-activating factor): inhibited platelet aggregation
